# From patent US20240025883A1, “PYRIMIDIN-2-YL SULFONAMIDE DERIVATIVES” (Hoffmann-La Roche Inc., priority 2021, published 2024)
# Assays:
# [1] = Microsome clearance assay, human; details: microsomes
# Experimental: (§1) Incubations at a test compound of 1 mM in microsomes (0.5 mg/mL) plus cofactor NADPH are performed in 96 well plates at 37° C. on a TECAN (Tecan Group Ltd, Switzerland) automated liquid handling system. The final concentration of the test compound in the incubation is 1 microM. After a 10 minutes preincubation step of the test compound with the microsomes, the enzymatic reaction is started by the addition of cofactors. At 1, 3, 6, 9, 15, 25, 35 and 45 minutes, aliquots of the incubations are removed and quenched with 1:3 (v/v) acetonitrile containing internal standards. Samples are then cooled and centrifuged before analysis of the supernatant by LC-MS/MS.
# [2] = Microsome clearance assay, rat; details: microsomes
# Experimental: as §1
# [3] = Microsome clearance assay, mouse; details: microsomes
# Experimental: as §1
# [4] = molecular target: human GPR17 short isoform (Homo sapiens (Human), UniProt Q13304); test: GPR17 cAMP assay (hGPR17 cAMP, antagonist mode against EC80 of MDL29,951); type: cell-based; details: CHO-K1 cells stably expressing human GPR17 short isoform; EC80 of agonist MDL29,951; forskolin 15 μM
# Sequence of human GPR17 short isoform (Q13304 29-367): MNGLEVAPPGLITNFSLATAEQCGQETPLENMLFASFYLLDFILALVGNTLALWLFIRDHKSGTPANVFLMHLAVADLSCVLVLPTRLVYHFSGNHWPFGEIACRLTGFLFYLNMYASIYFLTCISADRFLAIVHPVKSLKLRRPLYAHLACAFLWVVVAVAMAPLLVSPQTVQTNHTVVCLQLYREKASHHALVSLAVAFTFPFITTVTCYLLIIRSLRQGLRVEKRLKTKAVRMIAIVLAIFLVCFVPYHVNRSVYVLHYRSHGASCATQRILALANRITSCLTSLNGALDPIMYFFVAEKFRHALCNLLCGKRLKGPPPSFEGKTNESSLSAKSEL
# Procedure, shortened: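 CHO-K1 cells stably expressing untagged human GPR17 short isoform, 10,000/well in HBSS/10 mM HEPES/0.1% BSA pH 7.4. Compounds added with EC80 MDL29,951 and 0.5 mM IBMX, then 15 μM forskolin 5 min later, 30 min at room temperature; cAMP by TR-FRET, normalized to reference antagonist, sigmoidal fit.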
# [5] = microsomes, 1 µM
# Experimental: as §1
# [6] = microsomes, 1 µM; remark: listed apart in the source
# Experimental: as §1
# [7] = microsomes, 1 µM; remark: listed apart in the source
# Experimental: as §1
microsomal CLint at 1 µM [1] [µL/min/mg],microsomal CLint at 1 µM [2] [µL/min/mg],microsomal CLint at 1 µM [3] [µL/min/mg],IC50 [4] [nM],Compound,also measured
10,10,10,91,"COc1nc(NS(=O)(=O)c2c[nH]c3c(F)c(Cl)ccc23)ncc1OCC(F)F [Example 123, 6-chloro-N-[5-(2,2-difluoroethoxy)-4-methoxy-pyrimidin-2-yl]-7-fluoro-1H-indole-3-sulfonamide]",
121,357,77,,"COc1nc(NS(=O)(=O)c2c[nH]c3cc(Cl)ccc23)c(F)cc1OCCF [RE-A, 6-chloro-N-[3-fluoro-5-(2-fluoroethoxy)-6-methoxy-2-pyridyl]-1H-indole-3-sulfonamide, reference compound]",
10,110,10,19,"COc1nc(NS(=O)(=O)c2c[nH]c3cc(Cl)ccc23)ncc1CC(F)F [Example 47, 6-chloro-N-[5-(2,2-difluoroethyl)-4-methoxy-pyrimidin-2-yl]-1H-indole-3-sulfonamide]",
16,29,10,69,"COc1nc(NS(=O)(=O)c2c[nH]c3cc(Cl)ccc23)ncc1OCCF [Example 1, 6-chloro-N-[5-(2-fluoroethoxy)-4-methoxy-pyrimidin-2-yl]-1H-indole-3-sulfonamide]",
,,,10,"COc1nc(NS(=O)(=O)c2c[nH]c3cc(Br)ccc23)nc(OC)c1CCC#N [Example 93, 6-bromo-N-[5-(2-cyanoethyl)-4,6-dimethoxy-pyrimidin-2-yl]-1H-indole-3-sulfonamide]",
,,,43,"COc1nc(NS(=O)(=O)c2c[nH]c3c(F)c(Br)ccc23)nc(OC)c1OCC(F)F [Example 242, 6-bromo-N-[5-(2,2-difluoroethoxy)-4,6-dimethoxy-pyrimidin-2-yl]-7-fluoro-1H-indole-3-sulfonamide]",
,,,48,"COc1nc(NS(=O)(=O)c2c[nH]c3c(F)c(Br)ccc23)ncc1CCC#N [Example 240, 6-bromo-N-[5-(2-cyanoethyl)-4-methoxy-pyrimidin-2-yl]-7-fluoro-1H-indole-3-sulfonamide]",
,,,38,"COc1nc(NS(=O)(=O)c2c[nH]c3c(Br)c(Cl)ccc23)ncc1CCC#N [Example 255, 7-bromo-6-chloro-N-[5-(2-cyanoethyl)-4-methoxy-pyrimidin-2-yl]-1H-indole-3-sulfonamide]",
,,,60,"COc1nc(NS(=O)(=O)c2c[nH]c3cc(Cl)ccc23)ncc1OC(F)(F)C(F)F [Example 43, 6-chloro-N-[4-methoxy-5-(1,1,2,2-tetrafluoroethoxy)pyrimidin-2-yl]-1H-indole-3-sulfonamide]",
,,,32,"COc1nc(NS(=O)(=O)c2c[nH]c3cc(C(F)F)ccc23)ncc1OCCF [Example 235, 6-(difluoromethyl)-N-[5-(2-fluoroethoxy)-4-methoxy-pyrimidin-2-yl]-1H-indole-3-sulfonamide]",
,,,21,"COc1nc(NS(=O)(=O)c2c[nH]c3c(F)c(Br)ccc23)nc(OC)c1OC(F)F [Example 241, 6-bromo-N-[5-(difluoromethoxy)-4,6-dimethoxy-pyrimidin-2-yl]-7-fluoro-1H-indole-3-sulfonamide]",
,,,127,"COc1nc(NS(=O)(=O)c2c[nH]c3nc(Cl)ccc23)ncc1CC(F)F [Example 203, 6-chloro-N-[5-(2,2-difluoroethyl)-4-methoxy-pyrimidin-2-yl]-1H-pyrrolo[2,3-b]pyridine-3-sulfonamide]",
,,,12,"COc1nc(NS(=O)(=O)c2c[nH]c3c(SC(F)F)c(Cl)ccc23)nc(OC)c1CCC#N [Example 107, 6-chloro-N-[5-(2-cyanoethyl)-4,6-dimethoxy-pyrimidin-2-yl]-7-(difluoromethylthio)-1H-indole-3-sulfonamide]",
,,,194,"COc1nc(NS(=O)(=O)c2c[nH]c3cc(Cl)ccc23)ncc1OC(C)(F)F [Example 42, 6-chloro-N-[5-(1,1-difluoroethoxy)-4-methoxy-pyrimidin-2-yl]-1H-indole-3-sulfonamide]",
,,,82,"CCCc1cnc(NS(=O)(=O)c2c[nH]c3cc(Cl)ccc23)nc1OC [Example 45, 6-chloro-N-(4-methoxy-5-propyl-pyrimidin-2-yl)-1H-indole-3-sulfonamide]",
,,,128,"COc1nc(NS(=O)(=O)c2c[nH]c3cc(Cl)ccc23)nc(C2CC2)c1CC(F)F [Example 79, 6-chloro-N-[4-cyclopropyl-5-(2,2-difluoroethyl)-6-methoxy-pyrimidin-2-yl]-1H-indole-3-sulfonamide]",

# Second part, the compound before the results:
Compound,microsomal CLint at 1 µM [1] [µL/min/mg],microsomal CLint at 1 µM [2] [µL/min/mg],microsomal CLint at 1 µM [3] [µL/min/mg],IC50 [4] [nM],also measured
"COc1nc(NS(=O)(=O)c2c[nH]c3cc(Cl)ccc23)c(F)cc1CCC#N [RE-D, 6-chloro-N-[5-(2-cyanoethyl)-3-fluoro-6-methoxy-2-pyridyl]-1H-indole-3-sulfonamide, reference compound]",103,869,121,,
"COc1nc(NS(=O)(=O)c2c[nH]c3cc(Cl)ccc23)ncc1CCC#N [Example 179, 6-chloro-N-[5-(2-cyanoethyl)-4-methoxy-pyrimidin-2-yl]-1H-indole-3-sulfonamide]",10,33,10,31,
"COc1nc(NS(=O)(=O)c2c[nH]c3cc(Cl)ccc23)c(F)cc1CC(F)F [RE-C, 6-chloro-N-[5-(2,2-difluoroethyl)-3-fluoro-6-methoxy-2-pyridyl]-1H-indole-3-sulfonamide, reference compound]",35,286,81,,
"COc1nc(NS(=O)(=O)c2c[nH]c3cc(Cl)ccc23)ncc1Br [Example 22, N-(5-bromo-4-methoxy-pyrimidin-2-yl)-6-chloro-1H-indole-3-sulfonamide]",10,10,10,515,
"COc1nc(NS(=O)(=O)c2c[nH]c3c(F)c(Cl)ccc23)c(F)cc1OCC(F)F [RE-B, reference compound]",11,65,26,,
"COc1nc(NS(=O)(=O)c2c[nH]c3c(SC(F)F)c(Cl)ccc23)ncc1CCC#N [Example 105, 6-chloro-N-[5-(2-cyanoethyl)-4-methoxy-pyrimidin-2-yl]-7-(difluoromethylthio)-1H-indole-3-sulfonamide]",,,,14,
"COc1nc(NS(=O)(=O)c2c[nH]c3c(F)c(Br)ccc23)ncc1OCCF [Example 213, 6-bromo-7-fluoro-N-[5-(2-fluoroethoxy)-4-methoxy-pyrimidin-2-yl]-1h-indole-3-sulfonamide]",,,,34,
"COc1nc(NS(=O)(=O)c2csc3nc(Cl)ccc23)ncc1OCCF [Example 27, 6-chloro-N-[5-(2-fluoroethoxy)-4-methoxy-pyrimidin-2-yl]thieno[2,3-b]pyridine-3-sulfonamide]",,,,83,
N-(4-bromo-2-fluoro-5-methoxy-phenyl)-6-chloro-1H-indole-3-sulfonamide [RE-F],,,,,Microsomal Clearance rat [5]: 166 μL/min/mg protein; Microsomal Clearance human [6]: 29 μL/min/mg protein; Microsomal Clearance mouse [7]: 129 μL/min/mg protein
"CSc1nc(NS(=O)(=O)c2c[nH]c3cc(Cl)ccc23)ncc1OCC(F)F [Example 35, 6-chloro-N-[5-(2,2-difluoroethoxy)-4-methylsulfanyl-pyrimidin-2-yl]-1H-indole-3-sulfonamide]",,,,479,
"COc1nc(NS(=O)(=O)c2c[nH]c3cc(Cl)ccc23)nc(OC(F)F)c1C [Example 72, 6-chloro-N-[4-(difluoromethoxy)-6-methoxy-5-methyl-pyrimidin-2-yl]-1H-indole-3-sulfonamide]",,,,40,
"COc1nc(NS(=O)(=O)c2c[nH]c3c(SC(F)F)c(Cl)ccc23)nc(OC)c1OCCF [Example 106, 6-chloro-7-(difluoromethylthio)-N-[5-(2-fluoroethoxy)-4,6-dimethoxy-pyrimidin-2-yl]-1H-indole-3-sulfonamide]",,,,7,
"COc1nc(NS(=O)(=O)c2c[nH]c3c(CC#N)c(Cl)ccc23)ncc1CC(F)F [Example 232, 6-chloro-7-(cyanomethyl)-N-[5-(2,2-difluoroethyl)-4-methoxy-pyrimidin-2-yl]-1H-indole-3-sulfonamide]",,,,35,
